In patent publication US10183943B2, “Heterocyclic compounds and their use in preventing or treating bacterial infections” (MUTABILIS, priority 2015, dated 2019):
Structures can show the parent of a compound that is named as a salt.

Key:
[1] = biological target: T1, OXA-15 (Pseudomonas aeruginosa, UniProt Q51574); assay: biochemical
T1 construct: made in house; host or cells: E. coli

[2] = biological target: T2, OXA-1 (Escherichia coli, UniProt P13661); assay: β-lactamase inhibitory activity, determination of IC50 (nitrocefin hydrolysis); assay type: biochemical; conditions: class (D); nitrocefin 200 μM, 30 min pre-incubation; read-out: IC50 β-lactamase OXA-1
T2 construct: made in house; host or cells: E. coli
T2 sequence (P13661 26-276): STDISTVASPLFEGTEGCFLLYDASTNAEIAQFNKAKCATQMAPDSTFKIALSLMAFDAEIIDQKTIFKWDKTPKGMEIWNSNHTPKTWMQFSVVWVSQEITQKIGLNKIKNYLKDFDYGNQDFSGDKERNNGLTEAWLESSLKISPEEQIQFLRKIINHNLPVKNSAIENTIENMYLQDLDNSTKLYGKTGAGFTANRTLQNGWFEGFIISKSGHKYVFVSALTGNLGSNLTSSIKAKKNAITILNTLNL

[3] = tested on: E. cloacae P99 (AmpC); assay: MIC of compounds alone, broth microdilution; assay type: cell-based; conditions: Enterobacter cloacae; strain P99 (E. cloacae); read-out: MIC compounds of the invention alone
How it was run: (§1)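 MIC taken by visual inspection as lowest concentration with no growth, after 16-20 h at 35 °C in ambient air. Compounds tested alone from DMSO by CLSI broth microdilution; inoculum of log-phase cells at 5×10^5 cfu/mL in cation-adjusted Mueller-Hinton broth.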

[4] = tested on: E. coli UFR74 (SHV-1, DHA-1); assay: MIC of compounds alone, broth microdilution; assay type: cell-based; conditions: Escherichia coli; strain UFR74 (E. coli); read-out: MIC compounds of the invention alone
How it was run: as §1

[5] = tested on: E. coli UFR32 (TEM-1, VEB-1, OXA-10); assay: MIC of compounds alone, broth microdilution; assay type: cell-based; conditions: Escherichia coli; strain UFR32 (E. coli); read-out: MIC compounds of the invention alone
How it was run: as §1

[6] = tested on: K. pneumoniae 200047 (TEM-1, SHV-32, CTX-M-15, OXA-1); assay: MIC of compounds alone, broth microdilution; assay type: cell-based; conditions: Klebsiella pneumoniae, read-out: MIC compounds of the invention alone
How it was run: as §1

[7] = tested on: P. aeruginosa CIP107051 (TEM-24); assay: MIC of compounds alone, broth microdilution; assay type: cell-based; conditions: Pseudomonas aeruginosa; strain CIP107051 (P. aeruginosa); read-out: MIC compounds of the invention alone
How it was run: as §1

[8] = tested on: K. pneumoniae UFR24 (TEM-1, SHV-2, SHV-11, OXA-1, OXA-48, OXA-47); assay: MIC of compounds alone, broth microdilution; assay type: cell-based; conditions: Klebsiella pneumoniae; strain UFR24 (K. pneumoniae); read-out: MIC compounds of the invention alone
How it was run: as §1

[9] = tested on: K. pneumoniae UFR77 (CMY-2); assay: MIC of compounds alone, broth microdilution; assay type: cell-based; conditions: Klebsiella pneumoniae; strain UFR77 (K. pneumoniae); read-out: MIC compounds of the invention alone
How it was run: as §1

[10] = tested on: K. pneumoniae 6299 (TEM-1, SHV-11, OXA-163); assay: MIC of compounds alone, broth microdilution; assay type: cell-based; conditions: Klebsiella pneumoniae; strain 6299 (K. pneumoniae); read-out: MIC compounds of the invention alone
How it was run: as §1

[11] = tested on: K. oxytoca UFR21 (TEM-1, CTX-M-15, OXA-48); assay: MIC of compounds alone, broth microdilution; assay type: cell-based; conditions: Klebsiella oxytoca, read-out: MIC compounds of the invention alone
How it was run: as §1

[12] = tested on: K. pneumoniae BAA-1898 (TEM-1, SHV-11, SHV-12, KPC-2); assay: MIC of compounds alone, broth microdilution; assay type: cell-based; conditions: Klebsiella pneumoniae, BAA1898; strain BAA-1898 (K. pneumoniae); read-out: MIC compounds of the invention alone
How it was run: as §1

[13] = tested on: E. coli 131119 (TEM-1, OXA-48); assay: MIC of compounds alone, broth microdilution; assay type: cell-based; conditions: Escherichia coli; strain 131119 (E. coli); read-out: MIC compounds of the invention alone
How it was run: as §1

[14] = tested on: E. coli UFR61O (TEM-1, KPC-2); assay: MIC of compounds alone, broth microdilution; assay type: cell-based; conditions: Escherichia coli; strain UFR61O (E. coli); read-out: MIC compounds of the invention alone
How it was run: as §1

[15] = tested on: E. coli UFR18 (CTX-M-15, OXA-204); assay: MIC of compounds alone, broth microdilution; assay type: cell-based; conditions: Escherichia coli; strain UFR18 (E. coli); read-out: MIC compounds of the invention alone
How it was run: as §1

[16] = tested on: K. pneumoniae 160143 (TEM-1, SHV-1, CTX-M-15, KPC-2, OXA-1); assay: MIC of compounds alone, broth microdilution; assay type: cell-based; conditions: Klebsiella pneumoniae, read-out: MIC compounds of the invention alone
How it was run: as §1

[17] = tested on: K. pneumoniae UFR39 (CTX-M-15, NDM-1); assay: MIC of compounds alone, broth microdilution; assay type: cell-based; conditions: Klebsiella pneumoniae; strain UFR39 (K. pneumoniae); read-out: MIC compounds of the invention alone
How it was run: as §1

[18] = tested on: E. coli UFR41 (TEM-1, CTX-M-15, CMY-2, OXA-1, NDM-4); assay: MIC of compounds alone, broth microdilution; assay type: cell-based; conditions: Escherichia coli, read-out: MIC compounds of the invention alone
How it was run: as §1

[19] = tested on: E. coli RGN238 (OXA-1); assay: MIC of compounds alone, broth microdilution; assay type: cell-based; conditions: Escherichia coli; strain RGN238 (E. coli); read-out: MIC compounds of the invention alone
How it was run: as §1

[20] = biological target: T3, OXA-11 (Pseudomonas aeruginosa, UniProt Q06778); assay: β-lactamase inhibitory activity, determination of IC50 (nitrocefin hydrolysis); assay type: biochemical
T3 construct: made in house; host or cells: E. coli
T3 sequence (Q06778 21-266): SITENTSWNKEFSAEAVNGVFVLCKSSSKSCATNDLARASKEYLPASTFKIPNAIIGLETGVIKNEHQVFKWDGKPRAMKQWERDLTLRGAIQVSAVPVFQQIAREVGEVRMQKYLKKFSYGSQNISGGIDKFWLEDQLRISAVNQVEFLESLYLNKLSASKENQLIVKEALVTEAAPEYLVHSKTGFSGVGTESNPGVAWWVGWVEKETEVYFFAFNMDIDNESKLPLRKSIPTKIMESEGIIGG

[21] = tested on: E. cloacae UFR51 (SHV-12, IMP-8); assay: MIC of ceftazidime (CAZ) in combination with compounds at 4 μg/mL, broth microdilution; assay type: cell-based; conditions: strain UFR51; MIC of CAZ with compound fixed at 4 μg/mL
How it was run: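 Compounds were dissolved in DMSO and spotted onto plates. Log-phase cells were then added at 5×10^5 cfu/mL in cation-adjusted Mueller-Hinton broth, incubated 16-20 h at 35° C, and the MIC was scored visually as the lowest growth-inhibiting concentration.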

[22] = biological target: T4, CTX-M-15 (Escherichia coli, UniProt Q9EXV5); assay: β-lactamase inhibitory activity, determination of IC50 (nitrocefin hydrolysis); assay type: biochemical; conditions: class (A); nitrocefin 200 μM, 30 min pre-incubation; read-out: IC50 β-lactamase CTX-M-15
T4 construct: made in house; host or cells: E. coli
T4 sequence (Q9EXV5 entry or part of it): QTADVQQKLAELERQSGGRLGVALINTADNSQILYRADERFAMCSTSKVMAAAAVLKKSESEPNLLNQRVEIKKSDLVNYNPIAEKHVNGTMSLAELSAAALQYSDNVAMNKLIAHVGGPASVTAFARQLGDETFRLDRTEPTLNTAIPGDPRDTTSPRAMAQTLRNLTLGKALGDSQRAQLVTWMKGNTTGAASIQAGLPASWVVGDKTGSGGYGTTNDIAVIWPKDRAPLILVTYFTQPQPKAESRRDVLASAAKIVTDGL

[23] = biological target: T5, OXA-48 (Klebsiella pneumoniae, UniProt Q6XEC0); assay: as above; assay type: biochemical; conditions: class (D); nitrocefin 200 μM, 30 min pre-incubation; read-out: IC50 β-lactamase OXA-48
T5 construct: made in house; host or cells: E. coli
T5 sequence (Q6XEC0 23-265 limits assumed): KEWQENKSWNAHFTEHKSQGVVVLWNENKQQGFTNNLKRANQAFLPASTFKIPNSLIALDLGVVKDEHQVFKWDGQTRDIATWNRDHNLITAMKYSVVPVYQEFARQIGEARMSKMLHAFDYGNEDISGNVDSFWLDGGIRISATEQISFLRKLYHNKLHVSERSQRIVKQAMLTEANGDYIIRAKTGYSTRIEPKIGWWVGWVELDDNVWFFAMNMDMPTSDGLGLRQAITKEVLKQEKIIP

T1 sequence (Q51574 22-275): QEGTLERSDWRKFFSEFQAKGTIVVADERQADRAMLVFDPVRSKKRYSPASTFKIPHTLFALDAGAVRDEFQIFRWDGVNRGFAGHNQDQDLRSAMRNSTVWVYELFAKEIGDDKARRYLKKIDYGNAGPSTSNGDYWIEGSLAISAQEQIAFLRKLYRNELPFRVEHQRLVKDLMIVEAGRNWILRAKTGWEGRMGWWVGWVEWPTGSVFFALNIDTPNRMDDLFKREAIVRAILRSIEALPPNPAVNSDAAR

SMILES	IC50 [1]	IC50 [2]	MIC [3]	MIC [4]	MIC [5]	MIC [6]	MIC [7]	MIC [8]	MIC [9]	MIC [10]	MIC [11]	MIC [12]	MIC [13]	MIC [14]	MIC [15]	MIC [16]	MIC [17]	MIC [18]	MIC [19]	IC50 [20]	other results
O=C1N2CC=C(c3cnco3)C(C2)N1OS(=O)(=O)[O-].[Na+] (stereo not drawn) [Example 3, Sodium [4-(oxazol-5-yl)-7-oxo-1,6-diazabicyclo[3.2.1]oct-3-en-6-yl]sulfate]	0.033 µM	0.21 µM	8 mg/L	> 32 mg/L	> 32 mg/L	> 32 mg/L	> 32 mg/L	> 32 mg/L	> 32 mg/L	> 32 mg/L	> 32 mg/L	> 32 mg/L	4 mg/L	16 mg/L	2 mg/L	> 32 mg/L	4 mg/L	> 32 mg/L	16 mg/L	1.1 µM	MIC combination of CAZ and compounds of the invention at 4 μg/mL [21]: <0.25 mg/L; IC50 [22]: 0.0028 µM; IC50 [23]: 0.0035 µM
Cn1cc(C2=CCN3CC2N(OS(=O)(=O)[O-])C3=O)cnc1=O.[Na+] (stereo not drawn) [Example 15, Sodium [4-(N-methyl-2-oxo-pyrimidin-5-yl)-7-oxo-1,6-diazabicyclo[3.2.1]oct-3-en-6-yl] sulfate]	0.29 µM	1.1 µM	2 mg/L	> 32 mg/L	1 mg/L	> 32 mg/L	> 32 mg/L	> 32 mg/L	> 32 mg/L	> 32 mg/L	32 mg/L	> 32 mg/L	4 mg/L	8 mg/L	0.5 mg/L	> 32 mg/L	0.5 mg/L	> 32 mg/L	16 mg/L	2.6 µM	MIC combination of CAZ and compounds of the invention at 4 μg/mL [21]: 1 mg/L; IC50 [22]: 0.0063 µM; IC50 [23]: 0.0079 µM
Cn1ncc(C2=CCN3CC2N(OS(=O)(=O)[O-])C3=O)cc1=O.[Na+] (stereo not drawn) [Example 19, Sodium [4-(1-methyl-6-oxo-pyridazin-4-yl)-7-oxo-1,6-diazabicyclo[3.2.1]oct-3-en-6-yl] sulfate]	0.075 µM	0.38 µM	8 mg/L	> 32 mg/L	> 32 mg/L	> 32 mg/L	> 32 mg/L	> 32 mg/L	> 32 mg/L	> 32 mg/L	> 32 mg/L	> 32 mg/L	2 mg/L	> 32 mg/L	4 mg/L	> 32 mg/L	4 mg/L	> 32 mg/L	32 mg/L	0.29 µM	MIC combination of CAZ and compounds of the invention at 4 μg/mL [21]: <0.25 mg/L; IC50 [22]: 0.0054 µM; IC50 [23]: 0.0047 µM
O=C1N2CC(c3ncco3)=CC(C2)N1OS(=O)(=O)[O-].[Na+] (stereo not drawn) [Example 25, Sodium [3-(oxazol-2-yl)-7-oxo-1,6-diazabicyclo[3.2.1]oct-3-en-6-yl]sulfate]	0.3 µM	0.31 µM	8 mg/L	4 mg/L	2 mg/L	2 mg/L	> 128 mg/L	4 mg/L	4 mg/L	8 mg/L	4 mg/L	4 mg/L	2 mg/L	8 mg/L	2 mg/L	4 mg/L	8 mg/L	16 mg/L	2 mg/L	0.19 µM	MIC combination of CAZ and compounds of the invention at 4 μg/mL [21]: <0.25 mg/L; IC50 [22]: 0.015 µM; IC50 [23]: 0.0066 µM
NCc1cnc(C2=CC3CN(C2)C(=O)N3OS(=O)(=O)O)s1 (stereo not drawn) [Example 38, [3-[5-(aminomethyl)thiazol-2-yl]-7-oxo-1,6-diazabicyclo[3.2.1]oct-3-en-6-yl] hydrogen sulfate]	0.28 µM	0.63 µM	4 mg/L	32 mg/L	32 mg/L	8 mg/L	> 32 mg/L	> 32 mg/L	32 mg/L	> 32 mg/L	16 mg/L	> 32 mg/L	4 mg/L	2 mg/L	0.5 mg/L	8 mg/L	0.5 mg/L	1 mg/L	32 mg/L	0.56 µM	MIC combination of CAZ and compounds of the invention at 4 μg/mL [21]: <0.25 mg/L; IC50 [22]: 0.00079 µM; IC50 [23]: 0.0077 µM
O=C1N2CC(c3ncco3)=C[C@H](C2)N1OS(=O)(=O)[O-].[Na+] [Example 44, Sodium [(5R)-3-(oxazol-2-yl)-7-oxo-1,6-diazabicyclo[3.2.1]oct-3-en-6-yl] sulfate]	0.067 µM	0.087 µM	4 mg/L	2 mg/L	1 mg/L	1 mg/L	> 32 mg/L	2 mg/L	2 mg/L	4 mg/L	4 mg/L	4 mg/L	0.5 mg/L	4 mg/L	1 mg/L	1 mg/L	4 mg/L	4 mg/L	1 mg/L	0.046 µM	MIC combination of CAZ and compounds of the invention at 4 μg/mL [21]: <0.25 mg/L; IC50 [22]: 0.00061 µM; IC50 [23]: 0.0015 µM
